Measured values taken from EP3345917A1, “ANTIPROTOZOAL COMPOUNDS” (Bacoba AG, priority 2017, dated 2018).
Starred links: 1 amine or outer side, 2 acyl side, 3 side chain; linkers in the order of their positions; H or OH if unused. Non-standard residues stand in square brackets, D forms with d. Residues, ends and D or L forms follow the SMILES beside them. *: point of attachment. ACHC(1S,2R) = O=C([C@H]1CCCC[C@H]1N[*:1])[*:2]; Hexenoyl(2E,4S-Me) = CC[C@H](C)/C=C/C(=O)*; Leu(3R-OH) = CC(C)[C@@H](O)[C@H](N)C(=O)O; NH((S)CH(Me)CH2NMe2) = C[C@@H](CN(C)C)N*; NH(1-CH2NMe2-cBu) = CN(C)CC1(N*)CCC1; Gly(octyl) = CCCCCCCC[C@H](N)C(=O)O; Oxazole4CO(2-Me) = Cc1nc(C(=O)*)co1; X17 = C[C@@H](CN1CCOCC1)N*; Nle = CCCC[C@H](N)C(=O)O; Hexanoyl = CCCCCC(=O)*; Aib = CC(C)(N)C(=O)O; Bz = O=C(c1ccccc1)*; X14 = O=C(c1cocn1)*; βAla = NCCC(=O)O; NHcPr = C1CC1N*

Key:
[1] = Cytotoxicity assay on L6-cells (Alamar Blue); conditions: rat, Cytotox L6, Cytotoxicity against rat myoblast cells (L6)
[2] = test system: Trypanosoma brucei rhodesiense (STIB 900 strain); test: Alamar Blue assay against Trypanosoma brucei rhodesiense grown in axenic medium; type: cell-based; conditions: In vitro inhibition, read-out: T.b.rhod.
Procedure, shortened: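 T. b. rhodesiense STIB 900 cultured in axenic medium and exposed to samples in an Alamar Blue viability assay, run in triplicate. IC50 calculated from the readout; melarsoprol served as reference drug.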

[3] = test system: Trypanosoma cruzi trypomastigote forms (Tulahuen strain); test: Intracellular Trypanosoma cruzi assay in L6-cells, beta-galactosidase/CPRG readout; type: cell-based; conditions: In vitro inhibition, read-out: T.cruzi.
Procedure, shortened: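 L6 rat myoblasts infected with Tulahuen C2C4 LacZ T. cruzi; after incubation, CPRG/Nonidet substrate added and colour developed 2–6 h. Absorbance at 540 nm; IC50 calculated; triplicate tests.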

[4] = test system: Axenically grown Leishmania donovani amastigotes (strain MHOM/ET/67/L82); test: Axenic Leishmania donovani amastigote resazurin assay; type: cell-based; conditions: In vitro inhibition, read-out: L.don. ax
Procedure, shortened: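 Strain MHOM/ET/67/L82 amastigotes grown axenically and tested in triplicate by resazurin assay. Plates developed 2-4 hours, fluorescence read at 536 nm excitation/588 nm emission and expressed as percentage of negative control.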

[5] = test system: Plasmodium falciparum; test: 3H-hypoxanthine incorporation assay against Plasmodium falciparum; type: cell-based; conditions: In vitro inhibition, read-out: P.falc NF5
Description: Tests were done in triplicate.
IC50 values were calculated by linear interpolation.

Structure (SMILES) | IC50 at 70 h [1] [nM] | IC50 [2] [nM] | IC50 [3] [nM] | IC50 [4] [nM] | IC50 [5] [nM]
CCCCCCCC[C@H](NC(=O)[C@@H]1CCCN1C(=O)CCCCC)C(=O)N[C@H](C(=O)N[C@@H](CC(C)C)C(=O)N[C@@H](CC(C)C)C(=O)NC(C)(C)C(=O)NC(C)(C)C(=O)NCCC(=O)N[C@@H](C)CN(C)C)[C@@H](C)O [Compound 5598, (2S)-N-[(1S,2R)-1-{[(1S)-1-{[(1S)-1-{[1-({1-[(2-{[(2S)-1-(dimethylamino)propan-2-yl]carbamoyl}ethyl)carbamoyl]-1-methylethyl}carbamoyl)-1-methylethyl]carbamoyl}-3-methylbutyl]carbamoyl}-3-methylbutyl]carbamoyl}-2-hydroxypropyl]-2-{[(2S)-1-hexanoylpyrrolidin-2-yl]formamido}decanamide] (Hexanoyl-P[Gly(octyl)]TLL[Aib][Aib][βAla]-{NH((S)CH(Me)CH2NMe2)}) | 3780 | 1240 | 6590 | 556 | 2130
CCCCCCCC[C@H](NC(=O)[C@@H]1CCCN1C(=O)c1coc(C)n1)C(=O)N[C@@H](CC(C)C)C(=O)NC(C)(C)C(=O)N[C@@H](CC(C)C)C(=O)N[C@@H](CC(C)C)C(=O)NC(C)(C)C(=O)N[C@@H](CC(C)C)C(=O)NCCC(=O)NC1(CN(C)C)CCC1 [Compound 6329, (2S)-N-[(1S)-1-[(1-{[(1S)-1-{[(1S)-1-[(1-{[(1S)-1-{[2-({1-[(dimethylamino)methyl]cyclobutyl}carbamoyl)ethyl]carbamoyl}-3-methylbutyl]carbamoyl}-1-methylethyl)carbamoyl]-3-methylbutyl]carbamoyl}-3-methylbutyl]carbamoyl}-1-methylethyl)carbamoyl]-3-methylbutyl]-2-{[(2S)-1-(2-methyl-1,3-oxazole-4-carbonyl)pyrrolidin-2-yl]formamido}decanamide] ({Oxazole4CO(2-Me)}-P[Gly(octyl)]L[Aib]LL[Aib]L[βAla]-{NH(1-CH2NMe2-cBu)}) | 398 | 0.08 | 4.6 | 0.17 | 0.17
CCCCCCCC[C@H](NC(=O)[C@@H]1CCCN1C(=O)CCCCC)C(=O)N[C@@H](CC(C)C)C(=O)NC(C)(C)C(=O)N[C@@H](CC(C)C)C(=O)N[C@@H](CC(C)C)C(=O)NC(C)(C)C(=O)NC(C)(C)C(=O)NCCC(=O)NC1CC1 [Compound 5645, (2S)-N-[(1S)-1-[(1-{[(1S)-1-{[(1S)-1-({1-[(1-{[2-(cyclopropylcarbamoyl)ethyl]carbamoyl}-1-methylethyl)carbamoyl]-1-methylethyl}carbamoyl)-3-methylbutyl]carbamoyl}-3-methylbutyl]carbamoyl}-1-methylethyl)carbamoyl]-3-methylbutyl]-2-{[(2S)-1-hexanoylpyrrolidin-2-yl]formamido}decanamide] (Hexanoyl-P[Gly(octyl)]L[Aib]LL[Aib][Aib][βAla]-NHcPr) | 1230 | 537 | 4240 | 168 | 13.8
CCCCCCCC[C@H](NC(=O)c1coc(C)n1)C(=O)N[C@H](C(=O)NC(C)(C)C(=O)N[C@@H](CC(C)C)C(=O)N[C@@H](CC(C)C)C(=O)NC(C)(C)C(=O)NC(C)(C)C(=O)NCCC(=O)N[C@@H](C)CN(C)C)[C@@H](C)O [Compound 5640, (2S)-N-[(1S,2R)-1-[(1-{[(1S)-1-{[(1S)-1-{[1-({1-[(2-{[(2S)-1-(dimethylamino)propan-2-yl]carbamoyl}ethyl)carbamoyl]-1-methylethyl}carbamoyl)-1-methylethyl]carbamoyl}-3-methylbutyl]carbamoyl}-3-methylbutyl]carbamoyl}-1-methylethyl)carbamoyl]-2-hydroxypropyl]-2-[(2-methyl-1,3-oxazol-4-yl)formamido]decanamide] ({Oxazole4CO(2-Me)}-[Gly(octyl)]T[Aib]LL[Aib][Aib][βAla]-{NH((S)CH(Me)CH2NMe2)}) | 4440 | 5.3 | 3740 | 193 | 85.6
CCCCCCCC[C@H](NC(=O)[C@H](C)NC(=O)CCCCC)C(=O)N[C@H](C(=O)NC(C)(C)C(=O)N[C@@H](CC(C)C)C(=O)N[C@@H](CC(C)C)C(=O)NC(C)(C)C(=O)NC(C)(C)C(=O)NCCC(=O)N[C@@H](C)CN(C)C)[C@@H](C)O [Compound 5605, (2S)-N-[(1S,2R)-1-[(1-{[(1S)-1-{[(1S)-1-{[1-({1-[(2-{[(2S)-1-(dimethylamino)propan-2-yl]carbamoyl}ethyl)carbamoyl]-1-methylethyl}carbamoyl)-1-methylethyl]carbamoyl}-3-methylbutyl]carbamoyl}-3-methylbutyl]carbamoyl}-1-methylethyl)carbamoyl]-2-hydroxypropyl]-2-[(2S)-2-hexanamidopropanamido]decanamide] (Hexanoyl-A[Gly(octyl)]T[Aib]LL[Aib][Aib][βAla]-{NH((S)CH(Me)CH2NMe2)}) | 2480 | 22.8 | 1840 | 78.6 | 39.3
CCCCCCCC[C@H](NC(=O)[C@H]1CCCC[C@H]1NC(=O)c1ccccc1)C(=O)N[C@@H](CC(C)C)C(=O)NC(C)(C)C(=O)N[C@@H](CC(C)C)C(=O)N[C@@H](CC(C)C)C(=O)NC(C)(C)C(=O)NC(C)(C)C(=O)NCCC(=O)N[C@@H](C)CN(C)C [Compound 5982, N-[(1R,2S)-2-{[(1S)-1-{[(1S)-1-[(1-{[(1S)-1-{[(1S)-1-{[1-({1-[(2-{[(2S)-1-(dimethylamino)propan-2-yl]carbamoyl}ethyl)carbamoyl]-1-methylethyl}carbamoyl)-1-methylethyl]carbamoyl}-3-methylbutyl]carbamoyl}-3-methylbutyl]carbamoyl}-1-methylethyl)carbamoyl]-3-methylbutyl]carbamoyl}nonyl]carbamoyl}cyclohexyl]benzamide] (Bz-[ACHC(1S,2R)][Gly(octyl)]L[Aib]LL[Aib][Aib][βAla]-{NH((S)CH(Me)CH2NMe2)}) | 573 | 29200 | 47.1 | 0.9 | 12100
CCCCCCCC[C@H](NC(=O)c1cocn1)C(=O)N[C@H](C(=O)NC(C)(C)C(=O)N[C@@H](CC(C)C)C(=O)N[C@@H](CC(C)C)C(=O)NC(C)(C)C(=O)NC(C)(C)C(=O)NCCC(=O)N[C@@H](C)CN(C)C)[C@@H](C)O [Compound 5639, (2S)-N-[(1S,2R)-1-[(1-{[(1S)-1-{[(1S)-1-{[1-({1-[(2-{[(2S)-1-(dimethylamino)propan-2-yl]carbamoyl}ethyl)carbamoyl]-1-methylethyl}carbamoyl)-1-methylethyl]carbamoyl}-3-methylbutyl]carbamoyl}-3-methylbutyl]carbamoyl}-1-methylethyl)carbamoyl]-2-hydroxypropyl]-2-[(1,3-oxazol-4-yl)formamido]decanamide] (X14-[Gly(octyl)]T[Aib]LL[Aib][Aib][βAla]-{NH((S)CH(Me)CH2NMe2)}) | 1640 | 22.5 | 5360 | 540 | 244
CCCC[C@H](NC(=O)[C@@H]1CCCN1C(=O)/C=C/[C@@H](C)CC)C(=O)N[C@H](C(=O)NC(C)(C)C(=O)N[C@@H](CC(C)C)C(=O)N[C@@H](CC(C)C)C(=O)NC(C)(C)C(=O)NC(C)(C)C(=O)NCCC(=O)N[C@@H](C)CN(C)C)[C@H](O)C(C)C [Compound 5561, (2S)-N-[(1S,2R)-1-[(1-{[(1S)-1-{[(1S)-1-{[1-({1-[(2-{[(2S)-1-(dimethylamino)propan-2-yl]carbamoyl}ethyl)carbamoyl]-1-methylethyl}carbamoyl)-1-methylethyl]carbamoyl}-3-methylbutyl]carbamoyl}-3-methylbutyl]carbamoyl}-1-methylethyl)carbamoyl]-2-hydroxy-3-methylbutyl]-2-{[(2S)-1-[(2E,4S)-4-methylhex-2-enoyl]pyrrolidin-2-yl]formamido}hexanamide] ({Hexenoyl(2E,4S-Me)}-P[Nle][Leu(3R-OH)][Aib]LL[Aib][Aib][βAla]-{NH((S)CH(Me)CH2NMe2)}) | 356 | 0.7 | 162 | 4.1 | 4.5
CCCCCCCC[C@H](NC(=O)[C@@H]1CCCN1C(=O)CCCCC)C(=O)N[C@@H](CC(C)C)C(=O)NC(C)(C)C(=O)N[C@@H](CC(C)C)C(=O)N[C@@H](CC(C)C)C(=O)NC(C)(C)C(=O)NC(C)(C)C(=O)NCCC(=O)N[C@@H](C)CN1CCOCC1 [Compound 5981, (2S)-2-{[(2S)-1-hexanoylpyrrolidin-2-yl]formamido}-N-[(1S)-3-methyl-1-[(1-methyl-1-{[(1S)-3-methyl-1-{[(1S)-3-methyl-1-{[1-methyl-1-({1-methyl-1-[(2-{[(2S)-1-(morpholin-4-yl)propan-2-yl]carbamoyl}ethyl)carbamoyl]ethyl}carbamoyl)ethyl]carbamoyl}butyl]carbamoyl}butyl]carbamoyl}ethyl)carbamoyl]butyl]decanamide] (Hexanoyl-P[Gly(octyl)]L[Aib]LL[Aib][Aib][βAla]-X17) | 1080 | 17.9 | 723 | 0.2 | 35800
